Data from patent US8883792B2, “Substituted isoquinoline derivative” (D. Western Therapeutics Institute, Inc., priority 2010, dated 2014).
Structures can show the parent of a compound that is named as a salt.

system: rabbits (New Zealand White); test: Ocular hypotensive effect in rabbits; assay type: in vivo, rabbit; settings: male New Zealand White rabbits, 0.04 mL eye drop, concentration of 1% (w/v) or lower, maximum ocular hypotensive rate vs vehicle-treated contralateral eye
Method: The compound of the present invention was administered to rabbits (New Zealand White, sex: male, 3 to 6 per group) and evaluated for its ocular hypotensive effect.
Each test compound was dissolved in a vehicle 1 (1.04 g of sodium dihydrogen phosphate dihydrate and 0.5 g of sodium chloride dissolved in purified water and then adjusted to pH 7.0 with sodium hydroxide to make the total amount to 100 mL) or a vehicle 2 (2% (w/v) aqueous boric acid solution) to prepare a test compound solution with a predetermined concentration.
The intraocular pressures of the rabbits were measured using Tiolat TonoVet handheld tonometer immediately before administration of test compound. The test compound solution and the vehicle were dropped at a volume of 0.04 mL to one eye and the contralateral eye, respectively, and the intraocular pressures were measured over time in the same way as above. The rate of the intraocular pressure of the eye receiving the test compound solution to that of the eye receiving the vehicle was calculated as an ocular hypotensive rate.

With `C[C@H](CNCCc1ccc(-c2ccncc2)cc1)NS(=O)(=O)c1ccc2cnccc2c1` [Example 93, (R)—N-[1-{4-(pyridin-4-yl)phenethylamino}propan-2-yl]isoquinoline-6-sulfonamide trihydrochloride] as the molecule, how does the Ocular hypotensive activity read?
Its Ocular hypotensive activity is “++ (maximum ocular hypotensive rate of 15% or more)”.

Which Ocular hypotensive activity does the source give for `CO[C@H](CNC[C@@H](C)NS(=O)(=O)c1ccc2cnccc2c1)c1ccccc1.Cl` [Example 48, N—[(R)-1-{(S)-2-methoxy-2-phenylethylamino}propan-2-yl]isoquinoline-6-sulfonamide hydrochloride] here?
The Ocular hypotensive activity was “++ (maximum ocular hypotensive rate of 15% or more)”.

Which Ocular hypotensive activity does the source give for `C[C@H](CNC[C@@H](C)c1ccccc1)NS(=O)(=O)c1ccc2cnccc2c1` [Example 26, N—[(R)-1-{(S)-2-phenylpropylamino}propan-2-yl]isoquinoline-6-sulfonamide dihydrochloride] here?
The Ocular hypotensive activity was “++ (maximum ocular hypotensive rate of 15% or more)”.

How did the Ocular hypotensive activity turn out when `CCNC[C@@H](C)NS(=O)(=O)c1ccc2cnccc2c1` [Example 3, (R)—N-{1-(ethylamino)propan-2-yl}isoquinoline-6-sulfonamide dihydrochloride] was run?
The Ocular hypotensive activity was “++ (maximum ocular hypotensive rate of 15% or more)”.

With `C=CCNCCNS(=O)(=O)c1ccc2cnccc2c1` [Example 10, N-{2-(allylamino)ethyl}isoquinoline-6-sulfonamide dihydrochloride] as the molecule, how does the Ocular hypotensive activity read?
Its Ocular hypotensive activity is “++ (maximum ocular hypotensive rate of 15% or more)”.

How did the Ocular hypotensive activity turn out when `CNC[C@@H](C)NS(=O)(=O)c1ccc2cnccc2c1` [Example 2, (R)—N-{1-(methylamino)propan-2-yl}isoquinoline-6-sulfonamide dihydrochloride] was run?
Its Ocular hypotensive activity is “++ (maximum ocular hypotensive rate of 15% or more)”.

For `C[C@H](CNCCc1ccc(C(F)(F)F)cc1)NS(=O)(=O)c1ccc2cnccc2c1.Cl` [Example 60, (R)—N-{1-(4-trifluoromethylphenethylamino)propan-2-yl}isoquinoline-6-sulfonamide hydrochloride], which Ocular hypotensive activity is on record?
Its Ocular hypotensive activity is “++ (maximum ocular hypotensive rate of 15% or more)”.

Which Ocular hypotensive activity does the source give for `C[C@H](CNCCc1ccccc1Cl)NS(=O)(=O)c1ccc2cnccc2c1` [Example 38, (R)—N-{1-(2-chlorophenethylamino)propan-2-yl}isoquinoline-6-sulfonamide dihydrochloride] here?
The Ocular hypotensive activity was “++ (maximum ocular hypotensive rate of 15% or more)”.

Which Ocular hypotensive activity does the source give for `CNC(CCc1ccccc1)C[C@@H](C)NS(=O)(=O)c1ccc2cnccc2c1` (stereo partly drawn) [Example 120, N-{(2R)-4-(methylamino)-6-phenylhexan-2-yl}isoquinoline-6-sulfonamide dihydrochloride] here?
Its Ocular hypotensive activity is “++ (maximum ocular hypotensive rate of 15% or more)”.

`C[C@@H](CNCCc1ccccc1)NS(=O)(=O)c1ccc2cnccc2c1` [Example 24, (S)—N-{1-(phenethylamino)propan-2-yl}isoquinoline-6-sulfonamide dihydrochloride] was tested. Which Ocular hypotensive activity did it give?
Its Ocular hypotensive activity is “++ (maximum ocular hypotensive rate of 15% or more)”.

`C[C@H](CNCCc1cc2ccccc2o1)NS(=O)(=O)c1ccc2cnccc2c1` [Example 75, (R)—N-[1-{(2-(benzofuran-2-yl)ethylamino}propan-2-yl]isoquinoline-6-sulfonamidedihydrochloride] was tested. Which Ocular hypotensive activity did it give?
Its Ocular hypotensive activity is “++ (maximum ocular hypotensive rate of 15% or more)”.

For `C[C@H](CNCCc1ccccc1)NS(=O)(=O)c1ccc2cncc(-c3ccsc3)c2c1` [Example 115, (R)—N-{1-(phenethylamino)propan-2-yl}-4-(thiophen-3-yl) isoquinoline-6-sulfonamide dihydrochloride], which Ocular hypotensive activity is on record?
The Ocular hypotensive activity was “++ (maximum ocular hypotensive rate of 15% or more)”.

`C[C@H](CC(N)CCc1ccccc1)NS(=O)(=O)c1ccc2cnccc2c1` (single isomer, unassigned; diastereomer b) [Example 119] was tested. Which Ocular hypotensive activity did it give?
The Ocular hypotensive activity was “++ (maximum ocular hypotensive rate of 15% or more)”.

Which Ocular hypotensive activity does the source give for `C[C@H](CNCC1CC1)NS(=O)(=O)c1ccc2cnccc2c1` [Example 18, (R)—N-{1-(cyclopropylmethylamino)propan-2-yl}isoquinoline-6-sulfonamide dihydrochloride] here?
The Ocular hypotensive activity was “++ (maximum ocular hypotensive rate of 15% or more)”.

With `CC=CCNC[C@H](C)NS(=O)(=O)c1ccc2cnccc2c1` [Example 8, (S)—N-{1-(but-2-enylamino)propan-2-yl}isoquinoline-6-sulfonamide dihydrochloride] as the molecule, how does the Ocular hypotensive activity read?
The Ocular hypotensive activity was “++ (maximum ocular hypotensive rate of 15% or more)”.

`CCCCCCNC[C@@H](C)NS(=O)(=O)c1ccc2cnccc2c1` [Example 22, (R)—N-{1-(hexylamino)propan-2-yl}isoquinoline-6-sulfonamide dihydrochloride] was tested. Which Ocular hypotensive activity did it give?
The Ocular hypotensive activity was “++ (maximum ocular hypotensive rate of 15% or more)”.

How did the Ocular hypotensive activity turn out when `C[C@H](CNCCc1ccccc1F)NS(=O)(=O)c1ccc2cnccc2c1` [Example 31, (R)—N-{1-(2-fluorophenethylamino)propan-2-yl}isoquinoline-6-sulfonamide dihydrochloride] was run?
Its Ocular hypotensive activity is “++ (maximum ocular hypotensive rate of 15% or more)”.

How did the Ocular hypotensive activity turn out when `Cc1ncsc1CCNC[C@@H](C)NS(=O)(=O)c1ccc2cnccc2c1` [Example 79, (R)—N-[1-{2-(4-methylthiazol-5-yl)ethylamino}propan-2-yl]isoquinoline-6-sulfonamide dihydrochloride] was run?
Its Ocular hypotensive activity is “++ (maximum ocular hypotensive rate of 15% or more)”.

How did the Ocular hypotensive activity turn out when `C[C@@H](CNCCc1c[nH]c2ccccc12)NS(=O)(=O)c1ccc2cnccc2c1.Cl` [Example 37, (S)—N-[1-{2-(1H-indol-3-yl)ethylamino}propan-2-yl]isoquinoline-6-sulfonamide hydrochloride] was run?
The Ocular hypotensive activity was “++ (maximum ocular hypotensive rate of 15% or more)”.

With `C#CCNC[C@@H](C)NS(=O)(=O)c1ccc2cnccc2c1` [Example 47, (R)—N-{1-(prop-2-yn-1-ylamino)propan-2-yl}isoquinoline-6-sulfonamide dihydrochloride] as the molecule, how does the Ocular hypotensive activity read?
The Ocular hypotensive activity was “++ (maximum ocular hypotensive rate of 15% or more)”.

With `C[C@H](CNCCc1cn(C)c2ccccc12)NS(=O)(=O)c1ccc2cnccc2c1.Cl` [Example 64, (R)—N-[1-{2-(1-methyl-1H-indol-3-yl)ethylamino}propan-2-yl]isoquinoline-6-sulfonamide hydrochloride] as the molecule, how does the Ocular hypotensive activity read?
Its Ocular hypotensive activity is “++ (maximum ocular hypotensive rate of 15% or more)”.

For `Cc1cncc2ccc(S(=O)(=O)N[C@H](C)CNCCc3ccc(F)cc3)cc12.Cl` [Example 113, (R)—N-{1-(4-fluorophenethylamino)propan-2-yl}-4-methyl-isoquinoline-6-sulfonamide hydrochloride], which Ocular hypotensive activity is on record?
The Ocular hypotensive activity was “++ (maximum ocular hypotensive rate of 15% or more)”.

With `C[C@H](CNCCc1ccco1)NS(=O)(=O)c1ccc2cnccc2c1.Cl` [Example 66, (R)—N-[1-{2-(furan-2-yl)ethylamino}propan-2-yl]isoquinoline-6-sulfonamide hydrochloride] as the molecule, how does the Ocular hypotensive activity read?
Its Ocular hypotensive activity is “++ (maximum ocular hypotensive rate of 15% or more)”.

With `C[C@H](CNCCn1cncn1)NS(=O)(=O)c1ccc2cnccc2c1.Cl` [Example 68, (R)—N-[1-{2-(1H-1,2,4-triazol-1-yl)ethylamino}propan-2-yl]isoquinoline-6-sulfonamide hydrochloride] as the molecule, how does the Ocular hypotensive activity read?
The Ocular hypotensive activity was “+ (maximum ocular hypotensive rate of 5% or more and less than 15%)”.
